According to patent US10869931B2, “Polyethylene glycol-modified angiogenesis inhibitor HM-1 and application thereof” (NANJING ANJI BIOLOGICAL TECHNOLOGY CO.,LTD, priority 2016, dated 2020):
Where no end group is shown, it is not given here.

Experiments:
[1] = tested on: Head and neck cancer tumor cells; assay: MTT proliferation inhibition, head and neck cancer cells; format: cell-based, human; design: concentration or dose not given beside the values; settings: 48 h
Outline: (§1)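 Tumour cells plated at 2×10^4 cells/mL, attached overnight, then exposed to dilutions of mPEG-HM-1 for 48 h at 37 °C, 5% CO2. MTT added 4 h, formazan dissolved in DMSO, absorbance 570/630 nm; growth inhibition = 1 − treated/untreated, three independent repeats, mean±SD.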

[2] = tested on: choroidal neovascularization in BN rats; assay: Laser-induced choroidal neovascularization in BN rats (FFA); format: in vivo, rat
Experimental: 6-8 weeks old male BN rats were anesthetized with 846 compound anesthetic 0.5 mL/kg administered intraperitoneally. The eye drops of compound tropamide eyes were used 5 minutes before laser photocoagulation, and the pupils of both eyes were fully scattered. Fix animals, with the aid of −53.00 D contact lens, around the optic disc and along the same distance from the optic disc 2PD, the laser beam photocoagulation were performed to make a total of 8 photo-condensation spots, with laser wavelength of 647.1 nm, power of 350 mW, photocoagulation spot diameter and time were 50 μm and 0.05 s, respectively. Immediately after photocoagulation, fundus photography was performed. FFA, histopathology and transmission electron microscopy were performed at 3, 7, 14, 21, and 28 days after photocoagulation.
It was confirmed by fundus photography and FFA examination that the fluorescein leakage of photocoagulation peaked on the 21st day after photocoagulation, and histopathological examination was performed at the same time. […] A large number of neovascular vessels were seen, and red blood cells were visible in the lumen. Microscopically, capillary cells in the choroidal melanocytes were cohesively altered and endothelial cells aggregated.
Rats that were successfully modeled were randomly divided into groups of 5 rats each. They were labeled as negative control group, mPEG-SC-HM-1 treatment group, mPEG2-NHS-HM-1 treatment group, mPEG-ALD-HM-1 treatment group and mPEG-bALD-HM-1 treatment group, respectively. Saline, mPEG-HM-1 (see Table 53 for dosing) was administered intravitreally, once daily for 1 week. FFA examinations were performed 3 days, 7 days, 14 days, and 28 days after administration of the modified peptides.

[3] = tested on: Prostate cancer tumor cells; assay: MTT proliferation inhibition, prostate cancer cells; format: cell-based, human; design: concentration or dose not given beside the values; settings: 48 h
Outline: as §1

[4] = tested on: Esophageal cancer tumor cells; assay: MTT proliferation inhibition, esophageal cancer cells; format: cell-based, human; design: concentration or dose not given beside the values; settings: 48 h
Outline: as §1

[5] = tested on: Thyroid cancer tumor cells; assay: MTT proliferation inhibition, thyroid cancer cells; format: cell-based, human; design: concentration or dose not given beside the values; settings: 48 h
Outline: as §1

[6] = tested on: sarcoma tumor cells; assay: MTT proliferation inhibition, sarcoma cells; format: cell-based, human; design: concentration or dose not given beside the values; settings: 48 h
Outline: as §1

[7] = tested on: neovascularization in rat model of premature retinopathy; assay: Fluctuating-oxygen rat model of premature retinopathy (endothelial nuclei count); format: in vivo; settings: day 14
Experimental: A fluctuating oxygen-induced animal model was used to randomly divide the newborn rats that were naturally delivered on the same day (within 12 hours) into three groups: the oxygenated model group, the oxygenated treatment group, and the normal control group. The oxygenated model group was subdivided into three subgroup models and along with the oxygenated treatment group was placed in a semi-closed oxygen chamber made of plexiglass. The chamber was connected to medical oxygen, and the oxygen analyzer was adjusted to a concentration of 80%±2%. After 24 hours, Nitrogen gas was introduced into the oxygen chamber, and the oxygen concentration was adjusted to 10%±2% and maintained for 24 h. This process was repeated, so that the oxygen concentration in the oxygen chamber is switched between 80% and 10% every 24 hours, and then transferred to the air for 7 days. The oxygen concentration was monitored 8 times a day, and the ambient temperature in the control cabin was 23° C.±2° C. Bedding change, adding food, changing water and replacing mother rats were performed once a day. The normal control group was placed in an animal facility environment. […] The oxygenated therapeutic components were divided into four subgroups, and on the 7th day of modeling, mPEG-SC-HM-1, mPEG2-NHS-HM-1, mPEG-ALD10k-HM-1, and mPEG-bALD-HM-1 were respectively administered by intravitreal injection. Only normal saline was administered to the oxygen model group and the control group. The administrations continued for 1 week. […] After immersion in wax, serial section at thickness of 4 μm was performed, wherein the sections were kept away from the optic disc. The sections are parallel to the sagittal plane of the cornea to the optic disc. Ten sections per eyeball were randomly selected from each eyeball to be stained with hematoxylin and eosin, and the number of vascular endothelial cells that broke through the retinal inner membrane was counted (only the vascular endothelial nucleus closely related to the inner retinal membrane was counted), and the average numbers of endothelial cells per eyeball per slice was counted.

mPEG-bALD5k-Arg-Gly-Ala-Asp-Arg-Ala-Gly-Gly-Gly-Gly-Arg-Gly-Asp ({mPEG‑bALD 5 kDa}-RGADRAGGGGRGD) [mPEG-bALD5k-HM-1]
rate of growth inhibition [1]: 39.92 ± 11.33%
CNV Incidence rate ([2]; Day 3 after administration, 25 μg intravitreally once daily for 1 week (Table 53)): 55.29%
leakage Spots # ([2]; Day 3 after administration, 25 μg intravitreally once daily for 1 week (Table 53), total spots 290-296 by table): 162
CNV Incidence rate ([2]; Day 7, 25 μg intravitreally once daily for 1 week (Table 53)): 52.43%
leakage Spots # ([2]; Day 7, 25 μg intravitreally once daily for 1 week (Table 53), total spots 182-188 by table): 97
CNV Incidence rate ([2]; Day 14, 25 μg intravitreally once daily for 1 week (Table 53)): 47.10%
leakage Spots # ([2]; Day 14, 25 μg intravitreally once daily for 1 week (Table 53), total spots 132-138 by table): 65
CNV Incidence rate ([2]; Day 28, 25 μg intravitreally once daily for 1 week (Table 53)): 46.38%
leakage Spots # ([2]; Day 28, 25 μg intravitreally once daily for 1 week (Table 53), total spots 67-71 by table): 32
rate of growth inhibition [3]: 39.27 ± 12.50%
rate of growth inhibition [4]: 45.03 ± 11.46%
rate of growth inhibition [5]: 42.19 ± 10.35%
rate of growth inhibition [6]: 41.42 ± 10.03%
Cell nuclei count ([7]; 25 μg intravitreal for 1 week from day 7, vascular endothelial nuclei breaking through inner retinal membrane per slice): 8.852 ± 2.933

mPEG-bALD10k-Arg-Gly-Ala-Asp-Arg-Ala-Gly-Gly-Gly-Gly-Arg-Gly-Asp ({mPEG‑bALD 10 kDa}-RGADRAGGGGRGD) [mPEG-bALD10k-HM-1]
rate of growth inhibition [1]: 49.01 ± 12.14%
CNV Incidence rate ([2]; Day 3 after administration, 50 μg intravitreally once daily for 1 week (Table 53)): 48.46%
leakage Spots # ([2]; Day 3 after administration, 50 μg intravitreally once daily for 1 week (Table 53), total spots 290-296 by table): 142
CNV Incidence rate ([2]; Day 7, 50 μg intravitreally once daily for 1 week (Table 53)): 46.49%
leakage Spots # ([2]; Day 7, 50 μg intravitreally once daily for 1 week (Table 53), total spots 182-188 by table): 86
CNV Incidence rate ([2]; Day 14, 50 μg intravitreally once daily for 1 week (Table 53)): 42.03%
leakage Spots # ([2]; Day 14, 50 μg intravitreally once daily for 1 week (Table 53), total spots 132-138 by table): 58
CNV Incidence rate ([2]; Day 28, 50 μg intravitreally once daily for 1 week (Table 53)): 39.13%
leakage Spots # ([2]; Day 28, 50 μg intravitreally once daily for 1 week (Table 53), total spots 67-71 by table): 27
rate of growth inhibition [3]: 50.02 ± 10.65%
rate of growth inhibition [4]: 64.92 ± 12.17%
rate of growth inhibition [5]: 55.74 ± 13.13%
rate of growth inhibition [6]: 52.01 ± 12.32%
Cell nuclei count ([7]; 50 μg intravitreal for 1 week from day 7, vascular endothelial nuclei per slice): 7.627 ± 1.892

mPEG-bALD20k-Arg-Gly-Ala-Asp-Arg-Ala-Gly-Gly-Gly-Gly-Arg-Gly-Asp ({mPEG‑bALD 20 kDa}-RGADRAGGGGRGD) [mPEG-bALD20k-HM-1]
rate of growth inhibition [1]: 45.13 ± 12.38%
CNV Incidence rate ([2]; Day 3 after administration, 100 μg intravitreally once daily for 1 week (Table 53)): 51.54%
leakage Spots # ([2]; Day 3 after administration, 100 μg intravitreally once daily for 1 week (Table 53), total spots 290-296 by table): 151
CNV Incidence rate ([2]; Day 7, 100 μg intravitreally once daily for 1 week (Table 53)): 49.19%
leakage Spots # ([2]; Day 7, 100 μg intravitreally once daily for 1 week (Table 53), total spots 182-188 by table): 91
CNV Incidence rate ([2]; Day 14, 100 μg intravitreally once daily for 1 week (Table 53)): 45.65%
leakage Spots # ([2]; Day 14, 100 μg intravitreally once daily for 1 week (Table 53), total spots 132-138 by table): 63
CNV Incidence rate ([2]; Day 28, 100 μg intravitreally once daily for 1 week (Table 53)): 40.58%
leakage Spots # ([2]; Day 28, 100 μg intravitreally once daily for 1 week (Table 53), total spots 67-71 by table): 28
rate of growth inhibition [3]: 46.90 ± 11.54%
rate of growth inhibition [4]: 60.56 ± 14.72%
rate of growth inhibition [5]: 49.38 ± 13.20%
rate of growth inhibition [6]: 50.91 ± 10.64%
Cell nuclei count ([7]; 100 μg intravitreal for 1 week from day 7, vascular endothelial nuclei per slice): 7.158 ± 1.724

mPEG-bALD40k-Arg-Gly-Ala-Asp-Arg-Ala-Gly-Gly-Gly-Gly-Arg-Gly-Asp ({mPEG‑bALD 40 kDa}-RGADRAGGGGRGD) [mPEG-bALD40k-HM-1]
rate of growth inhibition [1]: 40.09 ± 12.02%
CNV Incidence rate ([2]; Day 3 after administration, 200 μg intravitreally once daily for 1 week (Table 53)): 52.22%
leakage Spots # ([2]; Day 3 after administration, 200 μg intravitreally once daily for 1 week (Table 53), total spots 290-296 by table): 153
CNV Incidence rate ([2]; Day 7, 200 μg intravitreally once daily for 1 week (Table 53)): 50.81%
leakage Spots # ([2]; Day 7, 200 μg intravitreally once daily for 1 week (Table 53), total spots 182-188 by table): 94
CNV Incidence rate ([2]; Day 14, 200 μg intravitreally once daily for 1 week (Table 53)): 47.10%
leakage Spots # ([2]; Day 14, 200 μg intravitreally once daily for 1 week (Table 53), total spots 132-138 by table): 65
CNV Incidence rate ([2]; Day 28, 200 μg intravitreally once daily for 1 week (Table 53)): 42.03%
leakage Spots # ([2]; Day 28, 200 μg intravitreally once daily for 1 week (Table 53), total spots 67-71 by table): 29
rate of growth inhibition [3]: 40.82 ± 11.75%
rate of growth inhibition [4]: 57.19 ± 12.07%
rate of growth inhibition [5]: 45.53 ± 12.98%
rate of growth inhibition [6]: 47.90 ± 10.70%
Cell nuclei count ([7]; 200 μg intravitreal for 1 week from day 7, vascular endothelial nuclei per slice): 8.539 ± 2.218
